As for `C[C@H](CO)Nc1nc(SCc2cccc(C(F)(F)F)c2F)nc2[nH]c(=O)cnc12` [Example 30, 2-[[(2-Fluoro-3-(trifluoromethyl)phenyl)methyl]thio]-4-[[(1R)-2-hydroxy-1-methylethyl]amino]-7(8H)-pteridinone], the melting point was in the range of 217 to 219 °C.

`Cc1ccc(CSc2nc(N[C@H](C)CO)c3ncc(=O)[nH]c3n2)o1` [Example 24, 4-[[(1R)-2-Hydroxy-1-methylethyl]amino]-2-[[(5-methyl-2-furanyl)methyl]thio]-7(8H)-pteridinone]: the melting point fell in the range of 197 to 199 °C.

In the case of `C[C@H](CO)Nc1nc(SCc2ccno2)nc2[nH]c(=O)cnc12` [Example 22, 4-[[(1R)-2-Hydroxy-1-methylethyl]amino]-2-[(5-isoxazolylmethyl)thio]-7(8H)-pteridinone], the melting point lay within 191 to 194 °C.

`O=c1cnc2c(NC(CO)CO)nc(SCc3cccc(Cl)c3F)nc2[nH]1` [Example 8, 2-[[(3-Chloro-2-fluorophenyl)methyl]thio]-4-[[2-hydroxy-1-(hydroxymethyl)ethyl]amino]-7(8H)-pteridinone] came in with a melting point of 218.5 to 220.5 °C.

The molecule `C[C@H](CO)Nc1nc(SCc2cccs2)nc2[nH]c(=O)cnc12` [Example 26, 4-[[(1R)-2-Hydroxy-1-methylethyl]amino]-2-[[(2-thienyl)methyl)thio]-7(8H)-pteridinone] returned a melting point of 209 to 212 °C.

Take `C[C@H](CO)Nc1nc(SCc2cccc(Cl)c2F)nc2[nH]c(=O)cnc12` [Example 6, 2-[[(3-Chloro-2-fluorophenyl)methyl]thio]-4-[[(1R)-2-hydroxy-1-methylethyl]amino]-7(8H)-pteridinone]: the melting point lay within 209 to 211 °C.

`O=c1cnc2c(NCCO)nc(SCc3cccc(Cl)c3F)nc2[nH]1` [Example 7, 2-[[(3-Chloro-2-fluorophenyl)methyl]thio]-4-[(2-hydroxyethyl)amino]-7(8H)-pteridinone]: the melting point lay in the range of 195 to 196.5 °C.

In turn, `COc1ccc(CSc2nc(NC(CO)CO)c3ncc(=O)[nH]c3n2)cc1Cl` [Example 11, 2-[[(3-Chloro-4-methoxyphenyl)methyl]thio]-4-[[2-hydroxy-1-(hydroxymethyl)ethyl]amino]-7(8H)-pteridinone] registered a melting point of 209 to 211 °C.

In turn, `O=c1cnc2c(NC(CO)CO)nc(SCc3cccc(C(F)(F)F)c3F)nc2[nH]1` [Example 31, 2-[[(2-Fluoro-3-(trifluoromethyl)phenyl)methyl]thio]-4-[[2-hydroxy-1-(hydroxymethyl)ethyl]amino]-7(8H)-pteridinone] displayed a melting point of 244 to 245 °C.

Molecule `O=c1cnc2c(NCCO)nc(SCc3cccc(C(F)(F)F)c3F)nc2[nH]1` [Example 32, 2-[[(2-Fluoro-3-(trifluoromethyl)phenyl)methyl]thio]-4-[(2-hydroxyethyl)amino]-7(8H)-pteridinone] returned a melting point of 221 to 222 °C.

Molecule `C[C@H](CO)Nc1nc(SCc2ccccc2F)nc2[nH]c(=O)cnc12` [Example 25, 2-[[(2-Fluorophenyl)methyl]thio]-4-[[(1R)-2-hydroxy-1-methylethyl]amino]-7(8H)-pteridinone] displayed a melting point of 203 to 205 °C.

As to `O=c1cnc2c(NC(CO)CO)nc(SCc3cccs3)nc2[nH]1` [Example 28, 4-[[-2-Hydroxy-1-(hydroxymethyl)ethyl]amino]-2-[(2-thienylmethyl)thio]-7(8H)-pteridinone], the melting point was in the range of 220 to 223 °C.

The record behind these values is patent publication US7579342B2, “Pteridine compounds for the treatment of psoriasis” (AstraZeneca, priority 2000, dated 2009).
